Patent US20220151890A1, “EFFICIENT SUNSCREEN COMPOSITIONS WITH DIETHYLAMINO HYDROXYBENZOYL HEXYL BENZOATE AND BUTYL METHOXYDIBENZOYLMETHANE” (BASF SE, priority 2019, published 2022)
Where a name gives a salt, the structure may show the parent alone.

How the values were obtained:
[1] = Measurement of interfacial tension (polarity index) of emollients; assay type: physicochemical; conditions: interfacial tension between emollient and water, Tensimat Densimat TD2000
Source text: The term “polarity index” refers to non-polar or polar oils. Non-polar oils are mainly based on hydrocarbons and lack an electronegative element, such as oxygen. In contrast, polar oils contain heteroatoms that differ in electronegativity, which results in a dipole moment. However, such oils are still insoluble in water, i.e. hydrophob. The polarity index can be determined by measuring the interfacial tension between the respective oil and water.
Measurement of interfacial tension (polarity index)
Interfacial tension of the respective emollients as listed below was measured using a Tensimat Densimat TD2000.

[2] = UV filter performance: wavelength of maximum absorbance of BMDBM in emollient; assay type: physicochemical; conditions: BMDBM dissolved in the listed emollient; UV/Vis 290 to 400nm, 1 cm cuvette
Procedure: (§1) The wavelength of maximum absorbance (,max) is an indicator to describe the performance of a UV filter molecule. It gives the wavelength at which the absorbance is at maximum. […] The UV transmission spectrum of each UV filter - emollient mixture was measured from 290 to 400nm using a UV/Vis spectrophotometer Perkin Elmer Lambda 25. Three stock solutions with a concentration of 1mM of UV filter were prepared for each mixture. Further, three dilutions of each stock solution were prepared resulting in nine measurements in total per UV filter-emollient solution. Then, all solutions were filled in UV transparent quartz cuvette of 1 cm optical path-length for UV Transmission measurements.

[3] = UV filter performance: wavelength of maximum absorbance of DHHB in emollient; assay type: physicochemical; conditions: DHHB dissolved in the listed emollient; UV/Vis 290 to 400nm, 1 cm cuvette
Procedure: as §1

[4] = Recovery measurements on photo stability of BMDBM (irradiated film on quartz plates, HPLC); assay type: physicochemical; conditions: octocrylene free sunscreen composition
Procedure: Recovery measurements on photo stability of BMDBM
The sunscreen and UV filter compositions as defined above are applied on roughened quartz plates (2 μl/cm^2). Plates are irradiated using Atlas CPS device at different duration times (MED=Minimal Erythema Dose):
(§2) 0h (0 MED, no irradiation)
4h (20 MED). In total, four plates are prepared for each irradiation condition. After irradiation, each plate is rinsed off with tetrahydrofuran. The rinsing solution is further analyzed via HPLC to determine the recovery of BMDBM.

[5] = description of the commercial UV filter; cited from earlier work
[6] = Recovery measurements on photo stability of BEMT (irradiated film on quartz plates, HPLC); assay type: physicochemical; conditions: presence of BMDBM in the composition
Procedure: Recovery measurements on photo stability of BEMT
The sunscreen and UV filter compositions as defined above are applied on roughened quartz plates (2 μl/cm^2). Plates are irradiated using Atlas CPS device at different duration times:
as §2
4h (20 MED). In total, four plates are prepared for each irradiation condition. After irradiation, each plate is rinsed off with tetrahydrofuran. The rinsing solution is further analyzed via HPLC to determine the recovery of BEMT.

Row | SMILES | polarity index [1] | λmax values (BMDBM) [2] | λmax values (DHHB) [3] | absorption maximum [5] | also measured
1 | CCCCCCCCCCC(CO)CCCCCCCC (stereo not drawn) [octyldodecanol] | 25 mN/m | 357 nm | 349 nm | – | –
2 | CCCCCCCCCCCCCC(=O)OC(C)C [isopropyl myristate] | – | 357 nm | – | – | –
3 | CCOC(=O)CC(O)(CC(=O)OCC)C(=O)OCC [triethyl citrate] | – | 359 nm | 353 nm | – | –
4 | CCCCCCOC(=O)c1ccccc1C(=O)c1ccc(N(CC)CC)cc1O [DHHB, hexyl 2-[4-(diethylamino)-2-hydroxybenzoyl]benzoate] | – | – | – | 354 nm | effect on photo stability of BMDBM and BEMT, in words [4]: stabilizes the UV filter BMDBM and BEMT
5 | CC(C)OC(=O)CCCCC(=O)OC(C)C [diisopropyl adipate] | 12 mN/m | 357 nm | 351 nm | – | –
6 | CC(C)OC(=O)CCCCCCCCC(=O)OC(C)C [diisopropyl sebacate] | – | 357 nm | 350 nm | – | –
7 | COc1ccc(C(=O)CC(=O)c2ccc(C(C)(C)C)cc2)cc1 [BMDBM, 1-(4-(1,1-dimethylethyl)phenyl)-3-(4-methoxyphenyl)propane-1,3-dione] | – | – | – | 357 nm | effect on stability of BEMT, in words [6]: destabilizes the UV filter BEMT
8 | c1ccc(-c2ccc(-c3nc(-c4ccc(-c5ccccc5)cc4)nc(-c4ccc(-c5ccccc5)cc4)n3)cc2)cc1 [tris-biphenyl triazine, 2,4,6-Tris(biphenyl-4-yl)-1,3,5-triazine] | – | – | – | 310 nm | –
9 | CCCCC(CC)COC(=O)c1ccc(Nc2nc(Nc3ccc(C(=O)NC(C)(C)C)cc3)nc(Nc3ccc(C(=O)OCC(CC)CCCC)cc3)n2)cc1 (stereo not drawn) [diethylhexyl-butamidotriazone, 4,4′-[[6-[[4-[[(1,1-dimethylethyl)amino]carbonyl]phenyl]amino]-1,3,5-triazin-2,4-diyl]diimino]bis-benzoic acid-bis(2-ethylhexyl)ester] | – | – | – | 310 nm | –

Now from value to compound, other results behind:

Row | polarity index [1] | λmax values (BMDBM) [2] | λmax values (DHHB) [3] | SMILES | absorption maximum [5] | also measured
10 | 19 mN/m | 362 nm | 355 nm | O=C(OCCc1ccccc1)c1ccccc1 [phenethyl benzoate] | – | –
11 | 10 mN/m | 359 nm | 352 nm | CCCCOC(=O)CC(O)(CC(=O)OCCCC)C(=O)OCCCC [tributyl citrate] | – | –
12 | – | – | 351 nm | CCCCOC(=O)CCCCC(=O)OCCCC [dibutyl adipate] | – | –
